# Assay results as given in patent publication US10131652B2, “Pyrimidinyloxy benzene derivatives as herbicides” (E. I. DU PONT DE NEMOURS AND COMPANY, priority 2014, dated 2018).
# Where two headings read alike, the source gives them in different places.
# Tests used:
# Test in all cases: Test D pre-/postemergence plant response
# Type in all cases: in vivo
# [1] = tested on: morningglory (Ipomoea coccinea); conditions: Ipomoea, pre-emergence, Preemergence, scale 0 to 100 (0 no effect, 100 complete control), read-out: Plant response rating, Morningglory
# How it was run: (§1)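 Visual injury scoring (0–100) at 13 to 15 days in greenhouse. Preemergence sprays on seeded loam/sand; postemergence sprays on 1–4 leaf plants.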
# [2] = tested on: ragweed (common ragweed, Ambrosia elatior); conditions: Ambrosia artemisiifolia; for pest or weed control at 31 g/ha: 31 g ai/ha; for pest or weed control at 62 g/ha: 62 g ai/ha; for pest or weed control at 125 g/ha: 125 g ai/ha
# How it was run: as §1
# [3] = tested on: johnsongrass (Sorghum halepense); conditions: Sorghum halepense; for pest or weed control at 31 g/ha: 31 g ai/ha; for pest or weed control at 62 g/ha: 62 g ai/ha; for pest or weed control at 125 g/ha: 125 g ai/ha
# How it was run: as §1
# soybean (Glycine max) = conditions: Glycine max; for plant injury at 31 g/ha: 31 g ai/ha; for plant injury at 62 g/ha: 62 g ai/ha; for plant injury at 125 g/ha: 125 g ai/ha
# How it was run: as §1
# [4] = tested on: velvetleaf (Abutilon theophrasti); conditions: Abutilon theophrasti; for pest or weed control at 31 g/ha: 31 g ai/ha; for pest or weed control at 62 g/ha: 62 g ai/ha; for pest or weed control at 125 g/ha: 125 g ai/ha
# How it was run: as §1
# corn (Zea mays) = conditions: Zea mays; for Corn plant response rating (crop injury, 0 = no effect, 100 = complete kill) at 62 g/ha: 62 g ai/ha
# How it was run: as §1
# [5] = tested on: winter wheat (Triticum aestivum); conditions: Triticum aestivum; for plant injury at 31 g/ha: 31 g ai/ha; for plant injury at 62 g/ha: 62 g ai/ha; for plant injury at 125 g/ha: 125 g ai/ha
# How it was run: as §1
# [6] = tested on: oilseed rape (Brassica napus); conditions: Brassica napus; for plant injury at 31 g/ha: 31 g ai/ha
# How it was run: as §1
# [7] = tested on: large (Lg) crabgrass (Digitaria sanguinalis); conditions: Digitaria sanguinalis; for pest or weed control at 16 g/ha: 16 g ai/ha; for pest or weed control at 31 g/ha: 31 g ai/ha; for pest or weed control at 62 g/ha: 62 g ai/ha; for pest or weed control at 125 g/ha: 125 g ai/ha
# How it was run: as §1
# [8] = tested on: Italian ryegrass (Lolium multiflorum); conditions: Lolium multiflorum; for pest or weed control at 31 g/ha: 31 g ai/ha; for pest or weed control at 62 g/ha: 62 g ai/ha; for pest or weed control at 125 g/ha: 125 g ai/ha
# How it was run: as §1
# [9] = post-emergence, Postemergence, scale 0 to 100, 0 no effect, 100 complete control, read-out: Plant response rating, Ragweed
# [10] = pre-emergence, Preemergence, scale 0 to 100 (0 no effect, 100 complete control), read-out: Plant response rating, Ragweed
# [11] = post-emergence, Postemergence, scale 0 to 100, 0 no effect, 100 complete control, read-out: Plant response rating, Johnsongrass
# [12] = pre-emergence, Preemergence, scale 0 to 100 (0 no effect, 100 complete control), read-out: Plant response rating, Johnsongrass
# [13] = post-emergence, Postemergence, scale 0 to 100, 0 no effect, 100 complete control, read-out: Plant response rating, Soybean
# [14] = pre-emergence, Preemergence, scale 0 to 100 (0 no effect, 100 complete control), read-out: Plant response rating, Soybean
# [15] = post-emergence, Postemergence, scale 0 to 100, 0 no effect, 100 complete control, read-out: Plant response rating, Velvetleaf
# [16] = pre-emergence, Preemergence, scale 0 to 100 (0 no effect, 100 complete control), read-out: Plant response rating, Velvetleaf
# [17] = post-emergence, Postemergence, scale 0 to 100, 0 no effect, 100 complete control, read-out: Plant response rating, Wheat
# [18] = pre-emergence, Preemergence, scale 0 to 100 (0 no effect, 100 complete control), read-out: Plant response rating, Wheat
# [19] = post-emergence, Postemergence, scale 0 to 100 (0 no effect, 100 complete control), read-out: Crabgrass, Large plant response rating
# [20] = post-emergence, Postemergence, scale 0 to 100, 0 no effect, 100 complete control, read-out: Plant response rating, Crabgrass, Large
# [21] = pre-emergence, Preemergence, scale 0 to 100 (0 no effect, 100 complete control), read-out: Plant response rating, Crabgrass, Large
# [22] = post-emergence, Postemergence, scale 0 to 100, 0 no effect, 100 complete control, read-out: Plant response rating, Ryegrass, Italian
# [23] = pre-emergence, Preemergence, scale 0 to 100 (0 no effect, 100 complete control), read-out: Plant response rating, Ryegrass, Italian
smiles,measurement,setting,value
"Fc1cccc(Oc2ncc(Br)cn2)c1-c1cc(C(F)F)no1 [Compound 145, 5-bromo-2-[2-[3-(difluoromethyl)-5-isoxazolyl]-3-fluorophenoxy]pyrimidine]",pest or weed control at 31 g/ha,[1]; 31 g ai/ha,55%
same,pest or weed control at 62 g/ha,[1]; 62 g ai/ha,90%
same,pest or weed control at 31 g/ha,"[2]; post-emergence, Postemergence, scale 0 to 100 (0 no effect, 100 complete control), read-out: Ragweed plant response rating",50%
same,pest or weed control at 62 g/ha,[2]; [9],50%
same,pest or weed control at 125 g/ha,[2]; [9],65%
same,pest or weed control at 125 g/ha,"[2]; pre-emergence, Preemergence, read-out: Plant response rating (scale 0 to 100), Ragweed",100%
same,pest or weed control at 16 g/ha,"[2]; pre-emergence, Preemergence, 16 g ai/ha, scale 0 to 100 (0 no effect, 100 complete control), read-out: Plant response rating, Ragweed",25%
same,pest or weed control at 31 g/ha,[2]; [10],60%
same,pest or weed control at 62 g/ha,[2]; [10],75%
same,pest or weed control at 31 g/ha,"[3]; post-emergence, Postemergence, scale 0 to 100 (0 no effect, 100 complete control), read-out: Johnsongrass plant response rating",5%
same,pest or weed control at 62 g/ha,[3]; [11],5%
same,pest or weed control at 125 g/ha,[3]; [11],40%
same,pest or weed control at 125 g/ha,"[3]; pre-emergence, Preemergence, read-out: Plant response rating (scale 0 to 100), Johnsongrass",95%
same,pest or weed control at 16 g/ha,"[3]; pre-emergence, Preemergence, 16 g ai/ha, scale 0 to 100 (0 no effect, 100 complete control), read-out: Plant response rating, Johnsongrass",10%
same,pest or weed control at 31 g/ha,[3]; [12],75%
same,pest or weed control at 62 g/ha,[3]; [12],90%
same,plant injury at 31 g/ha,"soybean (Glycine max); post-emergence, Postemergence, scale 0 to 100 (0 no effect, 100 complete control), read-out: Soybean plant response rating",60%
same,plant injury at 62 g/ha,soybean (Glycine max); [13],75%
same,plant injury at 125 g/ha,soybean (Glycine max); [13],75%
same,plant injury at 125 g/ha,"soybean (Glycine max); pre-emergence, Preemergence, read-out: Plant response rating (scale 0 to 100), Soybean",90%
same,plant injury at 16 g/ha,"soybean (Glycine max); pre-emergence, Preemergence, 16 g ai/ha, scale 0 to 100 (0 no effect, 100 complete control), read-out: Plant response rating, Soybean",10%
same,plant injury at 31 g/ha,soybean (Glycine max); [14],60%
same,plant injury at 62 g/ha,soybean (Glycine max); [14],75%
same,pest or weed control at 31 g/ha,"[4]; post-emergence, Postemergence, scale 0 to 100 (0 no effect, 100 complete control), read-out: Velvetleaf plant response rating",70%
same,pest or weed control at 62 g/ha,[4]; [15],75%
same,pest or weed control at 125 g/ha,[4]; [15],80%
same,pest or weed control at 125 g/ha,"[4]; pre-emergence, Preemergence, read-out: Plant response rating (scale 0 to 100), Velvetleaf",100%
same,pest or weed control at 16 g/ha,"[4]; pre-emergence, Preemergence, 16 g ai/ha, scale 0 to 100 (0 no effect, 100 complete control), read-out: Plant response rating, Velvetleaf",90%
same,pest or weed control at 31 g/ha,[4]; [16],100%
same,pest or weed control at 62 g/ha,[4]; [16],100%
same,plant injury at 16 g/ha,"corn (Zea mays); post-emergence, Postemergence, 16 g ai/ha, scale 0 to 100 (0 no effect, 100 complete control), read-out: Corn plant response rating",5%
same,plant injury at 31 g/ha,"corn (Zea mays); post-emergence, Postemergence, 31 g ai/ha, scale 0 to 100 (0 no effect, 100 complete control), read-out: Corn plant response rating",5%
same,"Corn plant response rating (crop injury, 0 = no effect, 100 = complete kill) at 62 g/ha","corn (Zea mays); post-emergence, Postemergence, scale 0 to 100, 0 no effect, 100 complete control",5%
same,"Corn plant response rating (crop injury, 0 = no effect, 100 = complete kill) at 125 g/ha","corn (Zea mays); post-emergence, Postemergence, 125 g ai/ha, scale 0 to 100, 0 no effect, 100 complete control",10%
same,plant injury at 125 g/ha,"corn (Zea mays); pre-emergence, Preemergence, 125 g ai/ha, read-out: Plant response rating (scale 0 to 100), Corn",45%
same,"Corn plant response rating (crop injury, 0 = no effect, 100 = complete kill) at 16 g/ha","corn (Zea mays); pre-emergence, Preemergence, 16 g ai/ha, scale 0 to 100 (0 no effect, 100 complete control)",0%
same,"Corn plant response rating (crop injury, 0 = no effect, 100 = complete kill) at 31 g/ha","corn (Zea mays); pre-emergence, Preemergence, 31 g ai/ha, scale 0 to 100 (0 no effect, 100 complete control)",5%
same,"Corn plant response rating (crop injury, 0 = no effect, 100 = complete kill) at 62 g/ha","corn (Zea mays); pre-emergence, Preemergence, scale 0 to 100 (0 no effect, 100 complete control)",10%
same,plant injury at 31 g/ha,"[5]; post-emergence, Postemergence, scale 0 to 100 (0 no effect, 100 complete control), read-out: Wheat plant response rating",5%
same,plant injury at 62 g/ha,[5]; [17],5%
same,plant injury at 125 g/ha,[5]; [17],10%
same,plant injury at 125 g/ha,"[5]; pre-emergence, Preemergence, read-out: Plant response rating (scale 0 to 100), Wheat",10%
same,plant injury at 16 g/ha,"[5]; pre-emergence, Preemergence, 16 g ai/ha, scale 0 to 100 (0 no effect, 100 complete control), read-out: Plant response rating, Wheat",0%
same,plant injury at 31 g/ha,[5]; [18],0%
same,plant injury at 62 g/ha,[5]; [18],5%
same,plant injury at 31 g/ha,"[6]; post-emergence, Postemergence, scale 0 to 100 (0 no effect, 100 complete control), read-out: Oilseed Rape plant response rating",70%
same,plant injury at 125 g/ha,"[6]; pre-emergence, Preemergence, 125 g ai/ha, read-out: Plant response rating (scale 0 to 100), Oilseed Rape",100%
same,plant injury at 16 g/ha,"[6]; pre-emergence, Preemergence, 16 g ai/ha, scale 0 to 100 (0 no effect, 100 complete control), read-out: Plant response rating, Oilseed Rape",40%
same,plant injury at 31 g/ha,"[6]; pre-emergence, Preemergence, scale 0 to 100 (0 no effect, 100 complete control), read-out: Plant response rating, Oilseed Rape",100%
same,plant injury at 62 g/ha,"[6]; pre-emergence, Preemergence, 62 g ai/ha, scale 0 to 100 (0 no effect, 100 complete control), read-out: Plant response rating, Oilseed Rape",100%
same,pest or weed control at 16 g/ha,[7]; [19],5%
same,pest or weed control at 31 g/ha,[7]; [19],10%
same,pest or weed control at 62 g/ha,[7]; [20],10%
same,pest or weed control at 125 g/ha,[7]; [20],20%
same,pest or weed control at 125 g/ha,"[7]; pre-emergence, Preemergence, read-out: Plant response rating (scale 0 to 100), Crabgrass, Large",100%
same,pest or weed control at 16 g/ha,[7]; [21],85%
same,pest or weed control at 31 g/ha,[7]; [21],100%
same,pest or weed control at 62 g/ha,[7]; [21],100%
same,pest or weed control at 31 g/ha,"[8]; post-emergence, Postemergence, scale 0 to 100 (0 no effect, 100 complete control), read-out: Ryegrass, Italian plant response rating",0%
same,pest or weed control at 62 g/ha,[8]; [22],10%
same,pest or weed control at 125 g/ha,[8]; [22],10%
same,pest or weed control at 125 g/ha,"[8]; pre-emergence, Preemergence, read-out: Plant response rating (scale 0 to 100), Ryegrass, Italian",85%
same,pest or weed control at 16 g/ha,"[8]; pre-emergence, Preemergence, 16 g ai/ha, scale 0 to 100 (0 no effect, 100 complete control), read-out: Plant response rating, Ryegrass, Italian",0%
same,pest or weed control at 31 g/ha,[8]; [23],35%
same,pest or weed control at 62 g/ha,[8]; [23],70%
